Laboratory results published in ChEMBL document CHEMBL1154751, “Evaluation of di-sansalvamide A derivatives: synthesis, structure-activity relationship, and mechanism of action” (J Med Chem, 2009).

Experiments:
HCT-116 [1] = assay: Growth inhibition of human HCT116 cells at 100 nM after 24 hrs by [3H]thymidine uptake assay; format: functional; settings: read-out: GI
[2] = Growth inhibition of human WS1 cells at 62.5 nM after 24 hrs by [3H]thymidine uptake assay; format: functional; settings: read-out: GI
[3] = Growth inhibition of human PL45 cells at 1 nM after 24 hrs by [3H]thymidine uptake assay; format: functional; settings: read-out: GI
[4] = Growth inhibition of human WS1 cells after 24 hrs by [3H]thymidine uptake assay; format: functional, cell-based
HCT-116 [5] = assay: Growth inhibition of human HCT116 cells at 50 nM after 24 hrs by [3H]thymidine uptake assay; format: functional; settings: read-out: GI
[6] = Growth inhibition of human PL45 cells at 500 nM after 24 hrs by [3H]thymidine uptake assay; format: functional; settings: read-out: GI
[7] = Growth inhibition of human PL45 cells after 24 hrs by [3H]thymidine uptake assay; format: functional, cell-based
HCT-116 [8] = assay: Growth inhibition of human HCT116 cells at 10 nM after 24 hrs by [3H]thymidine uptake assay; format: functional; settings: read-out: GI
HCT-116 [9] = assay: Growth inhibition of human HCT116 cells after 24 hrs by [3H]thymidine uptake assay; format: functional, cell-based
[10] = Growth inhibition of human WS1 cells at 500 nM after 24 hrs by [3H]thymidine uptake assay; format: functional; settings: read-out: GI
HCT-116 [11] = assay: Growth inhibition of human HCT116 cells at 20 nM after 24 hrs by [3H]thymidine uptake assay; format: functional; settings: read-out: GI
[12] = Growth inhibition of human PL45 cells at 1000 nM after 24 hrs by [3H]thymidine uptake assay; format: functional; settings: read-out: GI
[13] = Growth inhibition of human WS1 cells at 250 nM after 24 hrs by [3H]thymidine uptake assay; format: functional; settings: read-out: GI
[14] = Growth inhibition of human WS1 cells at 1000 nM after 24 hrs by [3H]thymidine uptake assay; format: functional; settings: read-out: GI
[15] = Growth inhibition of human PL45 cells at 62.5 nM after 24 hrs by [3H]thymidine uptake assay; format: functional; settings: read-out: GI
[16] = Growth inhibition of human PL45 cells at 125 nM after 24 hrs by [3H]thymidine uptake assay; format: functional; settings: read-out: GI
[17] = Growth inhibition of human WS1 cells at 1 nM after 24 hrs by [3H]thymidine uptake assay; format: functional; settings: read-out: GI
[18] = Growth inhibition of human WS1 cells at 125 nM after 24 hrs by [3H]thymidine uptake assay; format: functional; settings: read-out: GI
[19] = Growth inhibition of human PL45 cells at 250 nM after 24 hrs by [3H]thymidine uptake assay; format: functional; settings: read-out: GI
HCT-116 [20] = assay: Growth inhibition of human HCT116 cells at 200 nM after 24 hrs by [3H]thymidine uptake assay; format: functional; settings: read-out: GI

IC50 (HCT-116 [9]): 56.5 nM
SMILES: C=CCNC1=C2C[C@@H](C)C[C@H](OC)[C@H](O)[C@@H](C)/C=C(\C)[C@H](OC(N)=O)[C@@H](OC)/C=C\C=C(/C)C(=O)NC(=CC1=O)C2=O [TANESPIMYCIN]
inhibition of growth at 0.1 µM (HCT-116 [1]): 72%
inhibition of growth at 0.0625 µM [2]: 51.7%
inhibition of growth at 0.001 µM [3]: 11.4%
IC50 [4]: 31.8 nM
inhibition of growth at 0.05 µM (HCT-116 [5]): 54%
inhibition of growth at 0.5 µM [6]: 99%
IC50 [7]: 7.7 nM
inhibition of growth at 0.01 µM (HCT-116 [8]): 0%
inhibition of growth at 0.5 µM [10]: 76.3%
inhibition of growth at 0.02 µM (HCT-116 [11]): 12%
inhibition of growth at 1 µM [12]: 99%
inhibition of growth at 0.25 µM [13]: 66%
inhibition of growth at 1 µM [14]: 77.8%
inhibition of growth at 0.0625 µM [15]: 98%
inhibition of growth at 0.125 µM [16]: 99%
inhibition of growth at 0.001 µM [17]: 18%
inhibition of growth at 0.125 µM [18]: 73.2%
inhibition of growth at 0.25 µM [19]: 99%
inhibition of growth at 0.2 µM (HCT-116 [20]): 79%
